Assay results as given in patent publication US20220387370A1, “METHODS OF REDUCING NEUROLOGICAL DAMAGE IN WILSON DISEASE PATIENTS” (priority 2019, published 2022).

Test system: PBCEC monolayers
Experiment: Electron microscopy of tight junctions of PBCECs
Format: cell-based, porcine
Settings: copper-treated PBCECs, electron micrographs
Method: Electron microscopy of PBCECS grown on Transwell® inserts was performed as previously described (Ye, D., K. A. Dawson, and I. Lynch, Analyst, 2015. 140(1): p. 83-97) with minor modifications. Briefly, after fixation with 2.5% glutaraldehyde, cell monolayers were post-fixed with 1% osmium tetroxide for 30 min and dehydrated by ethanol.

Structure (SMILES): C[N+](C)(C)CCO.C[N+](C)(C)CCO.[SH-].[SH-].[S]=[Mo]=[S] [ALXN1840, bis-choline tetrathiomolybdate]
- loss of electron-dense protein complexes at the cell-cell borders: can be prevented
